Source: ChEMBL document CHEMBL3132848, “Glycosidase inhibition by novel guanidinium and urea iminosugar derivatives” (Medchemcomm, 2013)

What was measured:
[1] = Inhibition of naringinase in Penicillium decumbens after 30 mins by spectrophotometric analysis
[2] = Inhibition of alpha-mannosidase in jack bean after 30 mins by spectrophotometric analysis; set-up: species or system Canavalia ensiformis
[3] = Inhibition of beta-glucosidase in almond after 30 mins by spectrophotometric analysis; set-up: species or system Prunus dulcis
[4] = Inhibition of alpha-glucosidase in yeast after 30 mins by spectrophotometric analysis; set-up: species or system Saccharomyces cerevisiae
[5] = molecular target: T1, Beta-galactosidase (Bos taurus, UniProt Q58D55); experiment: Inhibition of beta-galactosidase in bovine liver after 30 mins by spectrophotometric analysis
T1 sequence (Q58D55 whole entry): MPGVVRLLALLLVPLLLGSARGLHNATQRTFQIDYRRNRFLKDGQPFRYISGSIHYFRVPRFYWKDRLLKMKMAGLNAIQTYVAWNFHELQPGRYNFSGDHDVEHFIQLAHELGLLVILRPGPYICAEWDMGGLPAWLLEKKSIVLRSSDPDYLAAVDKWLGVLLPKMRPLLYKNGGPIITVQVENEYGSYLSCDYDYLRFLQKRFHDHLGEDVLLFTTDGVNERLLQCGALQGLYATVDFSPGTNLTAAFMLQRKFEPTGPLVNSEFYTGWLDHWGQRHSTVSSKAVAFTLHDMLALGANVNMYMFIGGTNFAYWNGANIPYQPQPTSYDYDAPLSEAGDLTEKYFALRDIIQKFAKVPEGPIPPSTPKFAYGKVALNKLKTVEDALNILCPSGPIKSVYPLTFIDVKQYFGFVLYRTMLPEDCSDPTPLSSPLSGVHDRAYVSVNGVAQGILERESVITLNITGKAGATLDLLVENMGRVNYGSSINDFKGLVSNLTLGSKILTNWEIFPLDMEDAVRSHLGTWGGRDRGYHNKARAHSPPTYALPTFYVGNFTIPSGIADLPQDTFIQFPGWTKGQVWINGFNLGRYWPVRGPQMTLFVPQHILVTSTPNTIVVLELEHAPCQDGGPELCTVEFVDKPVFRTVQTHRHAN

[6] = molecular target: Alpha-galactosidase (Coffea arabica, UniProt Q42656); experiment: Inhibition of alpha-galactosidase in green coffee bean after 30 mins by spectrophotometric analysis
[7] = Inhibition of beta-mannosidase in Roman snail after 30 mins by spectrophotometric analysis; set-up: species or system Helix pomatia

Alpha-galactosidase, sequence (Q42656 whole entry): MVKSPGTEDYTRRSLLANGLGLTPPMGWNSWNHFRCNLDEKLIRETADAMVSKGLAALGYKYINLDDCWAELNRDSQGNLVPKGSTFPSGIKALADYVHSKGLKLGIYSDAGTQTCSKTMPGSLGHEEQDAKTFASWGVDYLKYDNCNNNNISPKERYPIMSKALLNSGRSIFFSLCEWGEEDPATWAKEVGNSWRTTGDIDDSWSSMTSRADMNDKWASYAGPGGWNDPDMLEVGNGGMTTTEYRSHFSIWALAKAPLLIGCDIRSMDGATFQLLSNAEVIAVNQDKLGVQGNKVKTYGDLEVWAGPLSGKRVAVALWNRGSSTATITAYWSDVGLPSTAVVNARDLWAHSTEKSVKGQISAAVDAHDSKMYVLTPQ

IC50 [1] | IC50 [2] | IC50 [3] | IC50 [4] | IC50 [5] | IC50 [6] | IC50 [7] | SMILES
27 µM | > 1000 µM | 4.3 µM | > 1000 µM | 5.1 µM | > 1000 µM | – | N=C(NCc1ccccc1)N1C[C@H](O)[C@@H](O)[C@H](O)[C@H]1CO
> 1000 µM | > 1000 µM | > 1000 µM | > 1000 µM | 27 µM | > 1000 µM | > 1000 µM | CCCCNC(=O)N1C[C@H](O)[C@@H](O)[C@H](O)[C@H]1CO
33 µM | > 1000 µM | 312 µM | 167 µM | – | – | > 1000 µM | OC[C@H]1NC[C@H](O)[C@@H](O)[C@@H]1O [DUVOGLUSTAT]
> 1000 µM | 113 µM | 41 µM | 20 µM | 15 µM | 18 µM | 408 µM | CCCCNC(=N)N1C[C@H](O)[C@@H](O)[C@H](O)[C@H]1CO
645 µM | > 1000 µM | 457 µM | 133 µM | > 1000 µM | 540 µM | – | N=C(NCCO)N1C[C@H](O)[C@@H](O)[C@H](O)[C@H]1CO
6 µM | > 1000 µM | 59 µM | 134 µM | > 1000 µM | 251 µM | > 1000 µM | CCCCCCN1C[C@H](O)[C@@H](O)[C@H](O)[C@H]1CO
67 µM | 55 µM | 25 µM | 31 µM | 2.6 µM | 23 µM | – | CCCCCCCCNC(=N)N1C[C@H](O)[C@@H](O)[C@H](O)[C@H]1CO
172 µM | > 1000 µM | > 1000 µM | 251 µM | > 1000 µM | > 1000 µM | – | N=C(NCCOCCO)N1C[C@H](O)[C@@H](O)[C@H](O)[C@H]1CO
33 µM | > 1000 µM | 67 µM | > 1000 µM | 6.2 µM | > 1000 µM | – | N=C(NCCCc1ccccc1)N1C[C@H](O)[C@@H](O)[C@H](O)[C@H]1CO
22 µM | > 1000 µM | 489 µM | 131 µM | 5.4 µM | > 1000 µM | – | N=C(NCCCOCC12CC3CC(CC(C3)C1)C2)N1C[C@H](O)[C@@H](O)[C@H](O)[C@H]1CO
